In ChEMBL document CHEMBL3994649, “Piceatannol, a natural trans-stilbene compound, inhibits human glyoxalase I” (Bioorg Med Chem Lett, 2017):
Active and inactive are the calls of the source. No cut-off for these calls is given here.

Experiments:
Lactoylglutathione lyase [1] = target: T1, Lactoylglutathione lyase (Homo sapiens, UniProt Q04760); assay: Inhibition of human N-terminal His6-tagged GLO1 expressed in baculovirus infected sf21 cells assessed as reduction in S-D-lactoylglutathione formation at 100 uM measured for 5 mins in presence of glutathione by spectrophotometric method
Target sequence in this assay (Q04760 2-184 limits assumed): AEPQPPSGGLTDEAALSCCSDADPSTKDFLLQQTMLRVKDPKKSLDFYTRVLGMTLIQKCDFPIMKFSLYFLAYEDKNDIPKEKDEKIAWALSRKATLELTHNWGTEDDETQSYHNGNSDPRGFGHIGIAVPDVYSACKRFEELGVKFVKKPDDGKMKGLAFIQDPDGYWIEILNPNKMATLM

Lactoylglutathione lyase [2] = target: T1, Lactoylglutathione lyase; assay: Inhibition of human N-terminal His6-tagged GLO1 expressed in baculovirus infected sf21 cells assessed as reduction in S-D-lactoylglutathione formation measured for 5 mins in presence of glutathione by spectrophotometric method
Target sequence in this assay (Q04760 whole entry): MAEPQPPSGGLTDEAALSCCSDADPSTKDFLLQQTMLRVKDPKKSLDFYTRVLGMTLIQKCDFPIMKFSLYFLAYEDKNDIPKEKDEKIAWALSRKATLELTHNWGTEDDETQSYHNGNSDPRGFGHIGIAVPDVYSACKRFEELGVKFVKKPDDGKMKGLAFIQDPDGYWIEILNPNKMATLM

NCI-H522 [3] = assay: Antiproliferative activity against human NCI-H522 cells after 24 hrs by WST8 assay; format: functional, cell-based; conditions: NCI-H522, 24 h
NCI-H522 [4] = assay: Antiproliferative activity against human NCI-H522 cells after 48 hrs by WST8 assay; format: functional, cell-based; conditions: NCI-H522, 48 h
NCI-H522 [5] = assay: Antiproliferative activity against human NCI-H522 cells after 72 hrs by WST8 assay; format: functional, cell-based; conditions: NCI-H522, 72 h
NCI-H460 = assay: Antiproliferative activity against human NCI-H460 cells at 50 uM after 24 to 72 hrs by WST8 assay; format: functional, cell-based
NCI-H522 [6] = assay: Antiproliferative activity against human NCI-H522 cells overexpressing human GLO1 at 10 to 30 uM after 72 hrs by WST8 assay; format: functional, cell-based
Lactoylglutathione lyase [7] = target: T1, Lactoylglutathione lyase; assay: Potency index, ratio of baicalein IC50 to compound IC50 for human N-terminal His6-tagged GLO1 expressed in baculovirus infected sf21 cells
Target sequence in this assay (Q04760 2-184 limits assumed): as the sequence (Q04760 2-184 limits assumed) above

SMILES | inhibition (Lactoylglutathione lyase [1]) | IC50 (Lactoylglutathione lyase [2]) [µM] | EC50 (NCI-H522 [3]) [µM] | EC50 (NCI-H522 [4]) [µM] | EC50 (NCI-H522 [5]) [µM] | Activity (NCI-H460) | Activity (NCI-H522 [6]) | Ratio IC50 (Lactoylglutathione lyase [7])
COc1cc(/C=C/c2ccc(OC)c(OC)c2)cc(OC)c1 | Active | – | – | – | – | – | – | –
Oc1cc(O)cc(/C=C/c2ccc(O)c(O)c2)c1 [PICEATANNOL] | Active | 0.76 | 53 | 23 | 17 | inactive | inactive | 14
